Tests used:
ΔF508-CFTR [1] = target: T1, ΔF508-CFTR (Homo sapiens, UniProt P13569, DEL508-508); test: CFTR cell surface levels using HRP-tagged ΔF508-CFTR expressing CFBE cells, intrinsic corrector capacity; type: cell-based; design: % Activation: concentration or dose not given beside the values; settings: HRP-tagged ΔF508-CFTR expressing CFBE41o- cells, compound alone (intrinsic corrector capacity), 20 hours at 33° C.; for EC50: read-out: EC50
T1 construct: host or cells: CFBE41o-, doxycycline-inducible
T1 sequence (P13569 with tags, fused parts or gaps DEL508-508): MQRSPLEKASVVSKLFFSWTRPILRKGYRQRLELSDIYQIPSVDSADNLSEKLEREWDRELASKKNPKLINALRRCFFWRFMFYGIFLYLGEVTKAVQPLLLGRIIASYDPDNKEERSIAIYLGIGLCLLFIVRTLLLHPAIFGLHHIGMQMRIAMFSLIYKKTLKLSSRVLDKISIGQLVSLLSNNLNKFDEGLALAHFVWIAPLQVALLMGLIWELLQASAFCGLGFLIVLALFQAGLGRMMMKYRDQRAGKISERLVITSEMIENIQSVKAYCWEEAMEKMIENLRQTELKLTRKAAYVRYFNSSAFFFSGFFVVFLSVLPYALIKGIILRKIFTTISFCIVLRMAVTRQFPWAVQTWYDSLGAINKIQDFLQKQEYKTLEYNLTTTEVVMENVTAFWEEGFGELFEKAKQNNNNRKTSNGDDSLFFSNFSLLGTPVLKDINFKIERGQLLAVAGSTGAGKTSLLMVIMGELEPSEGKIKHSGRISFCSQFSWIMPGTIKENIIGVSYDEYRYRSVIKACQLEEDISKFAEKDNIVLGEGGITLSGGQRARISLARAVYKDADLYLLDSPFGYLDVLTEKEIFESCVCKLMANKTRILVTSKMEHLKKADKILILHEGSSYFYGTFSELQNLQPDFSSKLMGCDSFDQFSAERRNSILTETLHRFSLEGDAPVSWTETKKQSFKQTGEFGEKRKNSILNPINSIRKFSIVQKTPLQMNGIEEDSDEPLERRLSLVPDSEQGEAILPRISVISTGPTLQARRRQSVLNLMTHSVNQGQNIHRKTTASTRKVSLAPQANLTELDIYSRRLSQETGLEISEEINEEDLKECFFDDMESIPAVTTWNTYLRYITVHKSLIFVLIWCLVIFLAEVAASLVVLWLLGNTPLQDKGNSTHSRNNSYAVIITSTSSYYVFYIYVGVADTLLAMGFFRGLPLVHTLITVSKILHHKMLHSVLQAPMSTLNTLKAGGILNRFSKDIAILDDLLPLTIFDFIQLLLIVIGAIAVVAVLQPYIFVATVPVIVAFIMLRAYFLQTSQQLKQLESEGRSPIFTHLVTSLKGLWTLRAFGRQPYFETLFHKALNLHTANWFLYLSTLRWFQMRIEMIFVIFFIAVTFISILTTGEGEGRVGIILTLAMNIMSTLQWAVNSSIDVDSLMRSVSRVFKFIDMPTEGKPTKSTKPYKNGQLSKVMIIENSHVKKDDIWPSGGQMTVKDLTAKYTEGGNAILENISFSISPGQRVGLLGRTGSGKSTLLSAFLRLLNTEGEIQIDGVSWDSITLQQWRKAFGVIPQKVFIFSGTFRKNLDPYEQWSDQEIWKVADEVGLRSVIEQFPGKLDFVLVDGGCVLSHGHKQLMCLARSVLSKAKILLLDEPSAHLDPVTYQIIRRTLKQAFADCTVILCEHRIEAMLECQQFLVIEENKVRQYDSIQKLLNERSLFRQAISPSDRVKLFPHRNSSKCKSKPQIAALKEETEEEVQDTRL
Summary of the method: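 Surface ΔF508-CFTR was measured as HRP chemiluminescence from an extracellular-loop-4 tag, expressed as percent activity between DMSO and a […] corrector control.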

ΔF508-CFTR [2] = target: T1, ΔF508-CFTR; test: CFTR cell surface levels using HRP-tagged ΔF508-CFTR expressing CFBE cells, in the presence of a co-corrector; type: cell-based; settings: HRP-tagged ΔF508-CFTR CFBE cells, in the presence of 3 μM co-corrector; for EC50: read-out: EC50
Summary of the method: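 Chemiluminescent read-out of surface HRP (15 min, dark) after PBS washes. Activity is normalized as 100×(sample−DMSO)/(3 μM co-corrector alone−DMSO).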

| Structure (SMILES) | % Activation (ΔF508-CFTR [1]) [%] | EC50 (ΔF508-CFTR [1]) [nM] | % Activation (ΔF508-CFTR [2]) [%] | EC50 (ΔF508-CFTR [2]) [nM] |
| --- | --- | --- | --- | --- |
| CC(C)c1nn(-c2cccc(F)c2)c2nc(C(=O)NS(C)(=O)=O)cc(-c3ccc(N4CCC(C#N)CC4)cc3)c12 [Compound 131, 4-[4-(4-cyanopiperidin-1-yl)phenyl]-1-(3-fluorophenyl)-N-(methanesulfonyl)-3-(propan-2-yl)-1H-pyrazolo[3,4-b]pyridine-6-carboxamide] | 314.35 | 430 | 465.1 | 581 |
| COCC1CCN(c2cc(C(=O)NS(=O)(=O)CCN)nc3c2c(C2CCC2)nn3-c2ccccc2)CC1 [Compound 261, N-(2-aminoethanesulfonyl)-3-cyclobutyl-4-[4-(methoxymethyl)piperidin-1-yl]-1-phenyl-1H-pyrazolo[3,4-b]pyridine-6-carboxamide] | 26.85 | > 10000 | 129.3 | > 10000 |
| COCCS(=O)(=O)NC(=O)c1cc(-c2ccc(N3CCC(C#N)CC3)nc2)c2c(OC3CCOC3)nn(-c3ccccc3)c2n1 (stereo not drawn) [Compound 275, 4-[6-(4-cyanopiperidin-1-yl)pyridin-3-yl]-N-(2-methoxyethanesulfonyl)-3-[(oxolan-3-yl)oxy]-1-phenyl-1H-pyrazolo[3,4-b]pyridine-6-carboxamide] | 138.8 | 468 | 269.85 | 138 |
| CN(C)CCCOc1cc(C(=O)NS(C)(=O)=O)nc2c1c(C1CCC1)nn2-c1ccccc1 [Compound 303, 3-cyclobutyl-4-[3-(dimethylamino)propoxy]-N-(methanesulfonyl)-1-phenyl-1H-pyrazolo[3,4-b]pyridine-6-carboxamide] | 149.9 | 3330 | 339.95 | 834 |
| CCS(=O)(=O)NC(=O)c1cc(-c2cnc(N3CCOCC3)nc2)c2c(C(C)C)nn(-c3ccccc3)c2n1 [Compound 112, N-(ethanesulfonyl)-4-[2-(morpholin-4-yl)pyrimidin-5-yl]-1-phenyl-3-(propan-2-yl)-1H-pyrazolo[3,4-b]pyridine-6-carboxamide] | 254.85 | 699 | 472.8 | 884 |
| COC1CCN(c2cc(C(=O)NS(=O)(=O)C3CCN(C(=O)OCc4ccccc4)CC3)nc3c2c(C2CCC2)nn3-c2ccccc2)CC1 [Compound 208, benzyl 4-{[3-cyclobutyl-4-(4-methoxypiperidin-1-yl)-1-phenyl-1H-pyrazolo[3,4-b]pyridine-6-carbonyl]sulfamoyl}piperidine-1-carboxylate] | 190.55 | 402 | 419.15 | 364 |
| CN(C)S(=O)(=O)NC(=O)c1cc(C2CCN(CC3CCOCC3)CC2)c2c(C3CCC3)nn(-c3ccc(F)cc3)c2n1 [Compound 601, 3-cyclobutyl-N-(dimethylsulfamoyl)-1-(4-fluorophenyl)-4-{1-[(oxan-4-yl)methyl]piperidin-4-yl}-1H-pyrazolo[3,4-b]pyridine-6-carboxamide] | 112 | 2180 | 273.9 | 625 |
| COC1CCN(c2cc(C(=O)NS(=O)(=O)CCC(F)(F)F)nc3c2c(C2CCC2)nn3-c2ccccc2)CC1 [Compound 147, 3-cyclobutyl-4-(4-methoxypiperidin-1-yl)-1-phenyl-N-(3,3,3-trifluoropropane-1-sulfonyl)-1H-pyrazolo[3,4-b]pyridine-6-carboxamide] | 176.47 | 359 | 363.93 | 99.9 |
| C#CCCS(=O)(=O)NC(=O)c1cc(N2CCC(N3CCOCC3)CC2)c2c(C3CCC3)nn(-c3ccc(F)cc3)c2n1 [Compound 477, N-(but-3-yne-1-sulfonyl)-3-cyclobutyl-1-(4-fluorophenyl)-4-[4-(morpholin-4-yl)piperidin-1-yl]-1H-pyrazolo[3,4-b]pyridine-6-carboxamide] | 341.4 | 117 | 536.7 | 34.7 |
| CCS(=O)(=O)NC(=O)c1cc(N2CCCCC2)c2c(C)nn(-c3ccccc3)c2n1 [Compound 19, N-(ethanesulfonyl)-3-methyl-1-phenyl-4-(piperidin-1-yl)-1H-pyrazolo[3,4-b]pyridine-6-carboxamide] | 140.85 | 2650 | 304.05 | 1630 |
| COCCC1CCN(c2cc(C(=O)NS(C)(=O)=O)nc3c2c(C(C)C)nn3-c2cccc(C)c2)CC1 [Compound 161, N-(methanesulfonyl)-4-[4-(2-methoxyethyl)piperidin-1-yl]-1-(3-methylphenyl)-3-(propan-2-yl)-1H-pyrazolo[3,4-b]pyridine-6-carboxamide] | 406.4 | 730 | 574.1 | 355 |
| COCCS(=O)(=O)NC(=O)c1cc(N2CCN(CC(F)(F)F)CC2)c2c(C3CCC3)nn(-c3ccccc3)c2n1 [Compound 330, 3-cyclobutyl-N-(2-methoxyethanesulfonyl)-1-phenyl-4-[4-(2,2,2-trifluoroethyl)piperazin-1-yl]-1H-pyrazolo[3,4-b]pyridine-6-carboxamide] | 133.1 | 213 | 285.4 | 124 |
| N#CC1CCN(S(=O)(=O)NC(=O)c2cc(N3CCC(N4CCOCC4)CC3)c3c(C4CCC4)nn(-c4ccc(F)cc4)c3n2)CC1 [Compound 505, N-(4-cyanopiperidine-1-sulfonyl)-3-cyclobutyl-1-(4-fluorophenyl)-4-[4-(morpholin-4-yl)piperidin-1-yl]-1H-pyrazolo[3,4-b]pyridine-6-carboxamide] | 187.5 | 92.6 | 389 | 54.1 |
| CS(=O)(=O)NC(=O)c1cc(-c2ccc(N3CCC(C#N)CC3)nc2)c2c(C3CC(F)(F)C3)nn(-c3ccccc3)c2n1 [Compound 195, 4-[6-(4-cyanopiperidin-1-yl)pyridin-3-yl]-3-(3,3-difluorocyclobutyl)-N-(methanesulfonyl)-1-phenyl-1H-pyrazolo[3,4-b]pyridine-6-carboxamide] | 225.2 | 370 | 387.47 | 192 |
| CCOCC1(F)CCN(c2cc(C(=O)NS(C)(=O)=O)nc3c2c(C2CCC2)nn3-c2ccccc2)CC1 [Compound 501, 3-cyclobutyl-4-[4-(ethoxymethyl)-4-fluoropiperidin-1-yl]-N-(methanesulfonyl)-1-phenyl-1H-pyrazolo[3,4-b]pyridine-6-carboxamide] | 188.7 | 211 | 403.55 | 124 |
| CC(C)(C)S(=O)(=O)NC(=O)c1cc(N2CCC(CN3CCCC3)CC2)c2c(C3CCC3)nn(-c3ccccc3)c2n1 [Compound 465, 3-cyclobutyl-N-(2-methylpropane-2-sulfonyl)-1-phenyl-4-{4-[(pyrrolidin-1-yl)methyl]piperidin-1-yl}-1H-pyrazolo[3,4-b]pyridine-6-carboxamide] | 131.6 | 313 | 293.15 | 360 |
| COC1CCN(S(=O)(=O)NC(=O)c2cc(N3CCC(N4CCOCC4)CC3)c3c(C4CCC4)nn(-c4ccc(F)cc4)c3n2)C1 (stereo not drawn) [Compound 538, 3-cyclobutyl-1-(4-fluorophenyl)-N-(3-methoxypyrrolidine-1-sulfonyl)-4-[4-(morpholin-4-yl)piperidin-1-yl]-1H-pyrazolo[3,4-b]pyridine-6-carboxamide] | 228.9 | 2070 | 427.95 | 358 |
| Cc1nn(-c2ccccc2)c2nc(C(=O)NS(C)(=O)=O)cc(-c3ccc(N4CCOCC4)nc3)c12 [Compound 37, N-(methanesulfonyl)-3-methyl-4-[6-(morpholin-4-yl)pyridin-3-yl]-1-phenyl-1H-pyrazolo[3,4-b]pyridine-6-carboxamide] | 222.85 | 1660 | 457.25 | 1160 |
| CC(C)c1nn(C2CCCCC2)c2nc(C(=O)NS(C)(=O)=O)cc(-c3ccc(N4CCCC(F)C4)nc3)c12 (stereo not drawn) [Compound 108, 1-cyclohexyl-4-[6-(3-fluoropiperidin-1-yl)pyridin-3-yl]-N-(methanesulfonyl)-3-(propan-2-yl)-1H-pyrazolo[3,4-b]pyridine-6-carboxamide] | 218.05 | 561 | 428.3 | 509 |
| CS(=O)(=O)NC(=O)c1cc(C2CCN(C3CCC(F)(F)CC3)CC2)c2c(C3CCC3)nn(-c3ccc(F)cc3)c2n1 [Compound 593, 3-cyclobutyl-4-[1-(4,4-difluorocyclohexyl)piperidin-4-yl]-1-(4-fluorophenyl)-N-(methanesulfonyl)-1H-pyrazolo[3,4-b]pyridine-6-carboxamide] | 157.8 | 190 | 366.7 | 194 |
| CS(=O)(=O)NC(=O)c1cc(N2CCC(N3CCCC(F)C3)CC2)c2c(C3CCC3)nn(-c3ccc(F)cc3)c2n1 (stereo not drawn) [Compound 567, 3-cyclobutyl-4-(3-fluoro[1,4'-bipiperidin]-1'-yl)-1-(4-fluorophenyl)-N-(methanesulfonyl)-1H-pyrazolo[3,4-b]pyridine-6-carboxamide] | 312.2 | 139 | 539.8 | 56.3 |

— patent US10259810B2, “N-sulfonylated pyrazolo[3,4-b]pyridin-6-carboxamides and method of use” (AbbVie S.à.r.l., priority 2015, dated 2019)
